Turning to `COC(=NC(=O)N(C)C)NC(=O)NC(C)(C)C`, the melting point (commonly the temperature of the solid-liquid transition) was 96 to 98 °C. For `COC(=O)COc1ccc(C=O)cc1OC`, the melting point was in the range of 91 to 93 °C. With `Cn1c(-c2ccccc2)c(C2=CCC(C(=O)O)(C(=O)O)CC2)c2ccccc21`, the melting point was 210 to 211 °C. Then `O=C(c1ccccc1)c1ccc2c(c1)CC(C(=O)NCCO)C2` (configuration not stated), with 106 to 107 °C; and `CC1(C)[C@H](C(=O)OCc2cnc(Cc3ccccc3)s2)[C@@H]1C=C(Br)Br`, with 66 °C; and `Cc1cccc2ncc3nnnn3c12`, with 166 to 168 °C. `CCCc1c2occc(=O)c2cc2c(=O)c(-c3ccc(C(=O)O)cc3)c(C(=O)O)oc12`: the melting point was 250 °C. In turn, `Cc1ccc(S(=O)(=O)N2[C@H](CCCCc3nnnn3C)CC[C@@H]2c2ccc(F)cc2)cc1` (racemic) gave a melting point of 77 °C. Regarding `COc1ccc(C(=O)OC2CC3C(=O)NC4(C(=O)NS(=O)(=O)C5CC5)CC4C=CCOCCCC(NC(=O)OC(C)(C)C)C(=O)N3C2)cc1` (configuration not stated), the melting point was in the range of 145 to 147 °C. For `CN1CCC(OC(c2cccc(-c3ccn[nH]3)c2)c2nc3ccccc3s2)CC1` (configuration not stated), the melting point was 90 °C. Consider `C#CCCC(O)=C(C#N)C(=O)Nc1ccc(C(F)(F)F)cc1`, for which the melting point stood at 172 °C. As for `CN(C)c1ncnc2c1ncn2Cc1c(Cl)cccc1Cl`, the melting point was 174 to 175 °C. `CC(C)c1nn(-c2ccc(Cl)cn2)cc1CCCO` registered a melting point of 93 to 95 °C.

Consider `CCN1c2ncc(C=Cc3cccc(C)c3)cc2C(=O)N(C)c2cccnc21`, for which the melting point lay within 207 to 208 °C. The compound `O=C1SCCN1Cc1ccccc1` had a melting point of 50 to 51 °C.

On to `Nc1nc(Cl)cc(C=C(Cl)Cl)n1`, for which the melting point is 119 to 120 °C. In the case of `CCN(C(=O)OC(C)(C)C)c1cn(-c2cccnc2)nc1Cl`, the melting point lay within 55 to 58 °C. Then `CCCCCCCCCCC(=O)c1ccncc1`, with 51 to 52 °C; and `CCOC(=O)NCc1ccc2[nH]cc(CC#N)c2c1`, with 104 to 106 °C; and `COc1cc(C=CC(=O)c2cccc(F)c2)cc(OC)c1`, with 89.5 to 90.3 °C. Then `CON1C=C2N=NC3=C(N2C1)N(c1ccccc1Cl)CC=C3`, with 190 to 193 °C. `Cc1cc(Cn2c(-c3ccccc3)nc(Cl)c2CO)ccc1OCc1ccccc1` had a melting point of 184 to 186 °C. On to `CN(C)C(=O)Oc1ccc(C=O)c(O)c1`, for which the melting point fell in the range of 58 to 60 °C.

For the compound `CC(Cl)C(=O)Nc1cccc2c1C(=O)c1cccc(NC(=O)C(C)Cl)c1C2=O` (configuration not stated), the melting point is 288 to 289 °C. `NC(=O)c1cnn2cccc2c1NC1CCC(O)CC1` (configuration not stated) returned a melting point of 192 °C.

Compound `NC(=O)c1cnc(N)c([N+](=O)[O-])c1` yielded a melting point of 289 to 290 °C. The compound `C1=C(c2cccs2)CCN(CCCSc2ccncc2)C1` registered a melting point of 86 to 87 °C. For `COC(=O)C1(C(F)(F)CCCCOc2ccc(Cl)cc2)CO1` (configuration not stated), the melting point is 40 to 48 °C. Turning to `O=C(O)C(=O)CC(=O)c1ccc(Cc2ccc(Cl)c(Cl)c2)cc1`, the melting point is 133 to 140 °C. For the compound `CCOC(=O)/C(=N\O[C@@H]1CCCC[C@@H]1C)c1csc(N)n1` (relative stereo), the melting point is 123 to 126 °C. Turning to `CCCOc1ccc(C=CC(=O)c2c(O)cc(OC)cc2OC)cc1`, the melting point came to 96.7 °C. In turn, `FC(F)(F)c1cc(Br)c2nc(C(F)(F)F)[nH]c2c1` came in with a melting point of 127 to 130 °C. `O=C(OCc1ccccc1)N1CCC2(CC1)CC(=O)N(O)C2=O` registered a melting point of 131 to 132 °C. Turning to `CCOC(=O)c1cnc2c3c(ccc2c1)C(=O)CC=N3`, the melting point lay within 250 to 252 °C. Next, `CC(=O)N1CCC(=O)C(C(c2ccccc2)c2ccccc2)C1` (configuration not stated): 133 to 136 °C.

Compound `COc1cccc(-c2nc3n(n2)Cc2cc(OC)c(OC)cc2-3)c1` yielded a melting point of 186 to 187 °C. On to `Cn1cc(-c2cnc3[nH]c(=O)n(CC4CCOCC4)c3n2)cn1`, for which the melting point was in the range of 224 to 226 °C. Take `CN1Cc2c(C(=O)OC(C)(C)C)ncn2-c2cccc(I)c2C1=O`: the melting point lay within 203 to 204 °C.

Consider `COCC(=O)Nc1cc2c(cc1Br)CCC2`, for which the melting point fell in the range of 84 to 86 °C. For `CSc1cc(C(=O)c2cc(C(C)(C)C)c(O)c(C(C)(C)C)c2)cn1C`, the melting point fell in the range of 173 to 175 °C. Next, `CCCCCNC(=O)N(C)c1cccc(-c2ccc(C=C(OC)C(=O)O)cc2OCCOCC)c1`: 78.2 °C; `COc1ccc(CN2CCC(N3Cc4cc(Cl)c(S(N)(=O)=O)cc4C3=O)CC2)cc1`: 207 to 210 °C; `N#Cc1cc(F)c(N2C(=O)c3ccccc3C2=O)cc1O`: 247 °C.

`CN(C)CCNC(=O)N1CCC(S(=O)(=O)c2ccc(Cl)cc2)C1` (configuration not stated): the melting point is 131 to 132 °C. `COC(=O)c1nc2cccc(Cl)c2c(O)c1C(=O)OC` came in with a melting point of 174 to 176 °C. Take `CCCC(=O)c1c(CC)nc2c(-c3ccc(Cl)cc3Cl)nccn12`: the melting point was in the range of 159 to 160 °C. In turn, `CCc1nnc(-c2cn3c(C)c(CC)c(OC)nc3n2)o1` came in with a melting point of 170 to 172 °C. Next, `COCOc1cccc(ON=C(C)C)c1C#N`: 62 to 64 °C; `O=C(O)C1(c2ccc3c(c2)OCO3)CC(F)(F)C1(F)F` (configuration not stated): 168 to 169 °C; `CCCNc1nc(N)nc(N(CCC)c2ccc(OC)c(F)c2)n1`: 53 to 55 °C. Then `O=C1NCC(CCN2CCN(c3ccccc3F)CC2)O1` (configuration not stated), with 121 to 124 °C. Next, `COCCn1ccc2ccc(NC(=O)/C=C/c3ccc(C(C)(C)C)cc3)cc21`: 133 °C; `CC(C)C[C@H](NC(=O)c1ccc(Cl)cc1)C(=O)N[C@@H](C(C)C)[C@@H](O)c1c(-c2ccccc2)c1=O`: 116 to 120 °C. `O=C(O)c1cn2c3c(c(F)c(F)cc3c1=O)OCC2` came in with a melting point of over 300 °C.

In turn, `CN(C(=O)CCCOc1ccc2nc3[nH]c(=O)n(C)c3cc2c1)C1CCCCCC1` showed a melting point of 234 to 236 °C. `CNC(=O)NCC(C)(C)N` displayed a melting point of 150 °C. As for `Cc1c(C(=O)O)nc2c(=O)[nH]c3cc(C(F)(F)F)ccc3n12`, the melting point is over 250 °C. Next, `CC1(C)Oc2ccc(C#N)cc2[C@@H](NC2=CC(=O)CC2)[C@@H]1O` (relative stereo): 174 to 176 °C; `CCSC(=O)c1c(C(F)(F)F)nc(C(F)F)c(C(=O)OC)c1NC(C)C`: 56 to 59 °C. Next, `Cc1ccc(-c2ncc(NC(=O)OCc3ccccc3)c(=O)n2CC(=O)NC(Cc2ccccc2)C(=O)C(F)(F)F)cc1` (configuration not stated): 173 to 175 °C; `N#Cc1cnc2cc(-c3ccc(C=O)cc3)sc2c1Cl`: 300 to 305 °C; `O=c1c2cccc3cccc(c32)c2nc3cc(C(F)(F)F)ccc3n12`: 212 to 214 °C. Turning to `COc1ccc2c(c1)c(CC(=O)O)c(C)n2C(=O)c1ccc(Cl)c(Cl)c1`, the melting point was 95 to 97 °C. Consider `Cc1c(F)c(F)cc(C#N)c1Cl`, for which the melting point was in the range of 59 to 61 °C. Next, `CN(C(=O)OC(C)(C)C)C1CC=C(c2c[nH]c3ccc([N+](=O)[O-])cc23)CC1` (configuration not stated): 224 to 226 °C; `COc1cc([N+](=O)[O-])c(F)cc1Cl`: 69 to 70 °C. With `COc1ccc(C=O)c(OCCO)c1`, the melting point turned out to be 94 °C.

The compound `CSc1nc(OCC(F)(F)F)c(C#N)c(N2CCc3ccccc3CC2)n1` registered a melting point of 108 to 110 °C. Then `O=C1CNC(=O)N1Cc1ccccc1`, with 139 to 140 °C. In the case of `CC(C)(C)Cc1c(CC(C)(C)C(=O)O)n(Cc2ccc(Cl)cc2)c2ccc(OCc3ccc4scc(Cl)c4n3)cc12`, the melting point lay in the range of 185 to 186 °C.

In turn, `COc1cc2c(cc1C(=O)COc1ccc(C(=O)OCc3ccccc3)c(O)c1)C(C)(C)CCC2(C)C` yielded a melting point of 118 to 119 °C. As for `CC(C)CC(C(N)=O)N1C(=O)c2ccccc2C1=O` (configuration not stated), the melting point was 173 to 176 °C.

In the case of `CCC1c2ccccc2-c2sc(Br)cc2N1S(=O)(=O)c1ccc(O)cc1` (configuration not stated), the melting point lay in the range of 183 to 185 °C. The compound `O=C1C(CCO)Oc2ccccc2N1Cc1cc(Cl)cc(Cl)c1` (configuration not stated) showed a melting point of 104 to 106 °C. On to `Cc1cc2n[nH]c(=O)n2nc1-c1ccc(C#N)cc1`, for which the melting point is over 300 °C. In turn, `O=[N+]([O-])c1cn2c(n1)OC(COc1ccc(N3CCN(CC4CCN(Cc5ccc(C(F)(F)F)cc5)CC4)CC3)cc1)CC2` (configuration not stated) gave a melting point of 214 to 217 °C. As to `O=C(O)C1C=CCn2c(=O)n(CO)c(=O)n21` (configuration not stated), the melting point was 175 to 178 °C. Consider `NC(=NCC(F)(F)F)Nc1nc(CCCCNc2nc3ccccc3[nH]2)cs1`, for which the melting point was in the range of 183 to 186 °C.

With `CN1CCC(OC2c3ccccc3CCn3c2nc(I)c3C(N)=O)CC1` (configuration not stated), the melting point worked out at 85 °C.

Compound `CC(C)C(=O)NC(N)=S` yielded a melting point of 114 to 116 °C. For the compound `CCCCC(CC)C(=O)Nc1ccc2ccn(Cc3ccc(C(=O)NS(=O)c4ccccc4)cc3OC)c2c1` (configuration not stated), the melting point was 122 to 126 °C. Then `CC(C)(C#N)NC(=O)Sc1ccccc1`, with 152 to 155 °C. With `CC(C)COC(=O)Oc1ccc(S(=O)(=O)c2ccc(S(N)(=O)=O)s2)cc1`, the melting point lay in the range of 111 to 112 °C. As to `O=C1CCC(c2ccc(C3=NNC(=O)CC3)cc2)=NN1`, the melting point was over 250 °C. Next, `O=C1c2ccccc2SCC1(CO)CO`: 136 to 139 °C.

For the compound `CCCCCCCCCCCCC1=C(OC(=O)CC)C(=O)c2ccccc2C1=O`, the melting point fell in the range of 42 to 44 °C. With `CC#Cc1ccc(NC(=O)c2ccccc2NCc2ccncc2)cc1`, the melting point was 147 to 155 °C. Next, `O=c1[nH]c2ccc(S(=O)CCN3CCC(Cc4cccc(F)c4F)CC3)cc2o1` (configuration not stated): 188 to 190 °C; `Cc1csc(NC(=O)c2ccc(CN3CCN(c4nc(C)cs4)C3=O)cc2)n1`: 197 to 198 °C; `COc1cccc(OC)c1C(=O)Nc1nnc(C2SCCCS2)s1`: 200 to 208 °C. Take `N#Cc1cc(-n2c3ccccc3[nH]c(=N)[nH]c3ccccc32)ccc1Cl`: the melting point was 225 to 228 °C. On to `COc1ccc(-n2c(=O)c(Cl)nc3cccnc32)cc1`, for which the melting point was over 300 °C.

The record behind these values is a melting point compilation (Tetko et al.; mined from patent text by program, amines drawn as free bases though some values may be those of a salt).
